pIC50: −log10 of the molar value. One block for each compound: values may come before it.
Legend:
HT-1080 = experiment: Antiproliferative activity against human HT1080 cells after 72 hrs by sulforhodamine-B assay; type: functional, cell-based; conditions: for pIC50: HT-1080, 72 h
[1] = Inhibition of hedgehog signaling pathway in mouse Light2 cells stimulated with 100 nM SAG after 30 hrs by Gli-firefly luciferase reporter gene assay
Mus musculus = species on record: Mus musculus; experiment: as above
[2] = Inhibition of hedgehog signaling pathway-mediated differentiation of mouse C3H10T1/2 cells assessed as decrease in SAG-induced ALP activity after 6 days by chemiluminescence-based assay; conditions: C3H 10T1/2, 144 h
LS180 = experiment: Antiproliferative activity against human LS180 cells after 72 hrs by sulforhodamine-B assay; type: functional, cell-based; conditions: for pIC50: LS180, 72 h
[3] = molecular target: T1, Coelenterazine h 2-monooxygenase (Renilla reniformis, UniProt P27652); experiment: Effect on Renilla reniformis luciferase; type: ADME
T1 sequence (P27652 whole entry): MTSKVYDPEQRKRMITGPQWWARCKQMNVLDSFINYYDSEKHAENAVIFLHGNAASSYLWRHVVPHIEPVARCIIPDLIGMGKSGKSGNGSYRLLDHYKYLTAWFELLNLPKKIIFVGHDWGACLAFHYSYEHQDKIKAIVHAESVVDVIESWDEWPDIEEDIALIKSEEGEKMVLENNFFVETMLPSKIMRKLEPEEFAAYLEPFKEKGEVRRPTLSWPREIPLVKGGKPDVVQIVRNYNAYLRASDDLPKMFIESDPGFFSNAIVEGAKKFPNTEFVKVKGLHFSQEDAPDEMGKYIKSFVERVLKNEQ

CYP2C19 [4] = molecular target: T2, CYP2C19 (Homo sapiens, UniProt P33261); experiment: Inhibition of recombinant human CYP2C19 expressed in insect cell microsomes at 10 uM using Luciferin-H EGE as substrate preincubated for 20 mins followed by NADPH addition measured after 30 mins by luminometric method; type: ADME; conditions: probe Luciferin-H EGE
T2 sequence (P33261 whole entry): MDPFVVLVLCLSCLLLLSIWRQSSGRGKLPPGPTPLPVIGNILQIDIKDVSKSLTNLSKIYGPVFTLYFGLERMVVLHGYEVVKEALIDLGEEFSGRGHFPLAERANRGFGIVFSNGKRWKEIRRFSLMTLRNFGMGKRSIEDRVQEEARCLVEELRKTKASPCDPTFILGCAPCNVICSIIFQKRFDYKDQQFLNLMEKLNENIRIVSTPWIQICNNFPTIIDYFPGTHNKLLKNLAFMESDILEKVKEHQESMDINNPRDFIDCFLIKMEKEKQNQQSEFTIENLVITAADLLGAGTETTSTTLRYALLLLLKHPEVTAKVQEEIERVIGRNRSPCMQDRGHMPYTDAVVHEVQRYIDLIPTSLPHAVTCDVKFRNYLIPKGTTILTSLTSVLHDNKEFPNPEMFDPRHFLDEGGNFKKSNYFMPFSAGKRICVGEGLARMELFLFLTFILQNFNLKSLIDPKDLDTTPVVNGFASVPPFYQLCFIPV

[5] = Intrinsic clearance in mouse liver […] per million cells at 1 uM after 120 mins by HPLC-MS/MS analysis; type: ADME; conditions: 2 h
[6] = Intrinsic clearance in mouse liver microsomes at 1 uM after 120 mins by HPLC-MS/MS analysis; type: ADME, microsome; conditions: read-out: CLH
[7] = Half life in cryopreserved mouse liver microsomes at 1 uM after 120 mins by HPLC-MS/MS analysis; type: ADME, microsome
Homo sapiens = species on record: Homo sapiens; experiment: Substrate activity at recombinant human P-gp in membrane fraction assessed as increase in ATPase activity at 10 uM by luminescent P-gp-Glo assay relative to control
CYP2C19 [8] = molecular target: T2, CYP2C19; experiment: Inhibition of recombinant human CYP2C19 expressed in insect cell microsomes at 1 uM using Luciferin-H EGE as substrate preincubated for 20 mins followed by NADPH addition measured after 30 mins by luminometric method; type: ADME; conditions: probe Luciferin-H EGE
CYP3A4 [9] = molecular target: T3, CYP3A4 (Homo sapiens, UniProt P08684); experiment: Inhibition of recombinant human CYP3A4 expressed in insect cell microsomes at 1 uM using Luciferin-IPA as substrate preincubated for 10 mins followed by NADPH addition measured after 10 mins by luminometric method; type: ADME; conditions: probe Luciferin-IPA
T3 sequence (P08684 whole entry): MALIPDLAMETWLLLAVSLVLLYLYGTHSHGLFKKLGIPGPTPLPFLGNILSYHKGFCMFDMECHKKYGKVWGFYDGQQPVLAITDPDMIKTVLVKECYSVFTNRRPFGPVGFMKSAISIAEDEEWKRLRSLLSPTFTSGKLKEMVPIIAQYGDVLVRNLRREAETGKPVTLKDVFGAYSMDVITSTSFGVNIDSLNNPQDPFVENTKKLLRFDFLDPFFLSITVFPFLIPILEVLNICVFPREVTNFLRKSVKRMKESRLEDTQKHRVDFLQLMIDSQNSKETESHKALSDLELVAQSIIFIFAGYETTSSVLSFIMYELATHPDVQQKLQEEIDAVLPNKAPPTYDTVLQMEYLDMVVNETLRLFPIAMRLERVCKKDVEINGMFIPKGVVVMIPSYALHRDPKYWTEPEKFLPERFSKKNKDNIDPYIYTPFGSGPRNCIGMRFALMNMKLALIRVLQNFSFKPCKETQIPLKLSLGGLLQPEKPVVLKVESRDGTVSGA

in vitro [10] = conditions: human, Caco-2
Description: Apparent permeability of the compound from apical to basolateral side in human Caco2 cells assessed as drug recovery after 120 mins by LC-MS/MS analysis

CYP2C19 [11] = molecular target: T2, CYP2C19; experiment: Inhibition of recombinant human CYP2C19 expressed in insect cell microsomes at 5 uM using Luciferin-H EGE as substrate preincubated for 20 mins followed by NADPH addition measured after 30 mins by luminometric method; type: ADME; conditions: probe Luciferin-H EGE
CYP2C9 [12] = molecular target: T4, CYP2C9 (Homo sapiens, UniProt P11712); experiment: Inhibition of recombinant human CYP2C9 expressed in insect cell microsomes at 5 uM using Luciferin-H as substrate preincubated for 30 mins followed by NADPH addition measured after 30 mins by luminometric method; type: ADME; conditions: probe Luciferin-H
T4 sequence (P11712 whole entry): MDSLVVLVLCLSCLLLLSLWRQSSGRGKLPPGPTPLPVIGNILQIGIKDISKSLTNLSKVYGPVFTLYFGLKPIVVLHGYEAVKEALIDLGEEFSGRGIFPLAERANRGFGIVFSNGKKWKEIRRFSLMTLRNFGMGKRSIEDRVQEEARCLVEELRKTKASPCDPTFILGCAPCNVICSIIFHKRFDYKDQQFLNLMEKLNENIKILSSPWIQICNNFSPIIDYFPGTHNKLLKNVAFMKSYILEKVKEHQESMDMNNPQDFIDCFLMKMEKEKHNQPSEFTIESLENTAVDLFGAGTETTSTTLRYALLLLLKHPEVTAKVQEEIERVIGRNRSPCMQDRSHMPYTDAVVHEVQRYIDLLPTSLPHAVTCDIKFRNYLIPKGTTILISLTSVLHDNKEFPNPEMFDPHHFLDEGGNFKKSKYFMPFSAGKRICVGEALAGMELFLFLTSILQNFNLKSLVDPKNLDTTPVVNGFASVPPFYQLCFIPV

[13] = Stability of the compound in mouse deproteinized plasma at 37 degC after 120 mins by HPLC-MS/MS analysis; type: ADME, cell-free; conditions: 2 h
CYP3A4 [14] = molecular target: T3, CYP3A4; experiment: Inhibition of recombinant human CYP3A4 expressed in insect cell microsomes at 5 uM using Luciferin-IPA as substrate preincubated for 10 mins followed by NADPH addition measured after 10 mins by luminometric method; type: ADME; conditions: probe Luciferin-IPA
[15] = Drug recovery in mouse plasma at 37 degC after 120 mins by HPLC-MS/MS analysis; type: ADME, cell-free; conditions: read-out: Drug recovery
CYP2D6 [16] = molecular target: T5, CYP2D6 (Homo sapiens, UniProt P10635); experiment: Inhibition of recombinant human CYP2D6 expressed in insect cell microsomes at 1 uM using Luciferin-ME EGE as substrate preincubated for 30 mins followed by NADPH addition measured after 45 mins by luminometric method; type: ADME; conditions: probe Luciferin-ME EGE
T5 sequence (P10635 whole entry): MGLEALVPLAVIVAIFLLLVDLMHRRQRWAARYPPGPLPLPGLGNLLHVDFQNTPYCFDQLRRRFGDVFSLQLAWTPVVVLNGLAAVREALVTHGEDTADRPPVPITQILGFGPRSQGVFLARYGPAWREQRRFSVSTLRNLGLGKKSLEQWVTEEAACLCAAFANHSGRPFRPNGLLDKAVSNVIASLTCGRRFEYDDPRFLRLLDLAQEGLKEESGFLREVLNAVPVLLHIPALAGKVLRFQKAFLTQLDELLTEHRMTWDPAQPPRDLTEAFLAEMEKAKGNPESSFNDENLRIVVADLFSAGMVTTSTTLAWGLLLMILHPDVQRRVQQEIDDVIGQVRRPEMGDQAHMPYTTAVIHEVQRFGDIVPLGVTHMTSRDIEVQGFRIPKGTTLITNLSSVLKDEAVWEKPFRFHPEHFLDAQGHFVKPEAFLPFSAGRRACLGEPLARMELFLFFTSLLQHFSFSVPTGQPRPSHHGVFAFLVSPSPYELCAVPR

CYP3A4 [17] = molecular target: T3, CYP3A4; experiment: Inhibition of recombinant human CYP3A4 expressed in insect cell microsomes at 10 uM using Luciferin-IPA as substrate preincubated for 10 mins followed by NADPH addition measured after 10 mins by luminometric method; type: ADME; conditions: probe Luciferin-IPA
CYP1A2 [18] = molecular target: T6, CYP1A2 (Homo sapiens, UniProt P05177); experiment: Inhibition of recombinant human CYP1A2 expressed in insect cell microsomes at 5 uM using Luciferin-ME as substrate preincubated for 10 mins followed by NADPH addition measured after 30 mins by luminometric method; type: ADME; conditions: probe Luciferin-ME
T6 sequence (P05177 whole entry): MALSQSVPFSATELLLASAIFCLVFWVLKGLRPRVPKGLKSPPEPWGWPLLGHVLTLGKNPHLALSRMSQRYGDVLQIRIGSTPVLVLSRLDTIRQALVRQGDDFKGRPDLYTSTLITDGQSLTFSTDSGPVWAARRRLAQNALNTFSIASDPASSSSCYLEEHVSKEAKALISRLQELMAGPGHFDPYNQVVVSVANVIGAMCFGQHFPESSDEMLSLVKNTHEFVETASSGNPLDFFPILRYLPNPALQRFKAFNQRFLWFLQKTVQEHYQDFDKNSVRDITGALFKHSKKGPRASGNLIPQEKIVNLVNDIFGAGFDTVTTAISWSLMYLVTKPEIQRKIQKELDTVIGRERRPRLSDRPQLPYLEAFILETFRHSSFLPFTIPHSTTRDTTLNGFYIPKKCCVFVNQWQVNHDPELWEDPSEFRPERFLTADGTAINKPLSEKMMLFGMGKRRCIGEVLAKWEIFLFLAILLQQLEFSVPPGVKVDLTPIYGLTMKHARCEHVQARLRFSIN

CYP2D6 [19] = molecular target: T5, CYP2D6; experiment: Inhibition of recombinant human CYP2D6 expressed in insect cell microsomes at 5 uM using Luciferin-ME EGE as substrate preincubated for 30 mins followed by NADPH addition measured after 45 mins by luminometric method; type: ADME; conditions: probe Luciferin-ME EGE
CYP2D6 [20] = molecular target: T5, CYP2D6; experiment: Inhibition of recombinant human CYP2D6 expressed in insect cell microsomes at 10 uM using Luciferin-ME EGE as substrate preincubated for 30 mins followed by NADPH addition measured after 45 mins by luminometric method; type: ADME; conditions: probe Luciferin-ME EGE
in vitro [21] = conditions: human, Caco-2; remark: listed apart in the source
Description: Apparent permeability of the compound from basolateral to apical side in human Caco2 cells assessed as drug recovery after 120 mins by LC-MS/MS analysis

CYP1A2 [22] = molecular target: T6, CYP1A2; experiment: Inhibition of recombinant human CYP1A2 expressed in insect cell microsomes at 10 uM using Luciferin-ME as substrate preincubated for 10 mins followed by NADPH addition measured after 30 mins by luminometric method; type: ADME; conditions: probe Luciferin-ME
CYP1A2 [23] = molecular target: T6, CYP1A2; experiment: Inhibition of recombinant human CYP1A2 expressed in insect cell microsomes at 1 uM using Luciferin-ME as substrate preincubated for 10 mins followed by NADPH addition measured after 30 mins by luminometric method; type: ADME; conditions: probe Luciferin-ME
CYP2C9 [24] = molecular target: T4, CYP2C9; experiment: Inhibition of recombinant human CYP2C9 expressed in insect cell microsomes at 1 uM using Luciferin-H as substrate preincubated for 30 mins followed by NADPH addition measured after 30 mins by luminometric method; type: ADME; conditions: probe Luciferin-H
CYP2C9 [25] = molecular target: T4, CYP2C9; experiment: Inhibition of recombinant human CYP2C9 expressed in insect cell microsomes at 10 uM using Luciferin-H as substrate preincubated for 30 mins followed by NADPH addition measured after 30 mins by luminometric method; type: ADME; conditions: probe Luciferin-H
in vitro [26] = conditions: human, Caco-2; remark: listed apart in the source
Description: Apparent permeability of the compound from apical to basolateral side in human Caco2 cells after 120 mins by LC-MS/MS analysis

- pIC50 (HT-1080): < 4.00
- pIC50 [1]: 7.30
- pIC50 [2]: 7.30
- Activity [3]: Not Active
Compound: CS(=O)(=O)c1ccc(C(=O)Nc2ccc(Cl)c(-c3ccccn3)c2)c(Cl)c1 [VISMODEGIB]
- Activity (HT-1080): Dose-dependent effect
- inhibition (Mus musculus): Dose-dependent effect
- Activity (LS180): Dose-dependent effect
- pIC50 (LS180): 4.35

- inhibition at 0.5 h, 1 µM (CYP2C19 [8]): 25%
- inhibition at 10 min, 1 µM (CYP3A4 [9]): 4%
- recovery at 2 h (in vitro [10]): 65.4%
- inhibition at 0.5 h, 5 µM (CYP2C19 [11]): 33%
- inhibition at 0.5 h, 5 µM (CYP2C9 [12]): 69%
- Stability [13]: Stable
- pIC50 (HT-1080): 4.57
- inhibition at 10 min, 5 µM (CYP3A4 [14]): 7%
- remaining at 2 h [15]: 4.9%
- pIC50 [1]: 7.00
- inhibition at 0.75 h, 1 µM (CYP2D6 [16]): 18%
- inhibition at 0.5 h, 10 µM (CYP2C19 [4]): 27%
- inhibition at 10 min, 10 µM (CYP3A4 [17]): 15%
- pIC50 [2]: 6.17
- inhibition at 0.5 h, 5 µM (CYP1A2 [18]): 5%
- inhibition at 0.75 h, 5 µM (CYP2D6 [19]): 1%
- inhibition at 0.75 h, 10 µM (CYP2D6 [20]): 6%
- fold change (FC) (Homo sapiens): 3
- recovery at 2 h (in vitro [21]): 42.9%
- inhibition at 0.5 h, 10 µM (CYP1A2 [22]): 1%
- inhibition at 0.5 h, 1 µM (CYP1A2 [23]): 2%
- inhibition at 0.5 h, 1 µM (CYP2C9 [24]): 63%
- Activity [3]: Not Active
- inhibition at 0.5 h, 10 µM (CYP2C9 [25]): 71%
Compound: COc1cc(C(=O)NC(=S)Nc2ccc(C)c(NC(=O)c3ccc(-c4ccc(F)cc4)cc3)c2)cc(OC)c1OC
- Activity (HT-1080): Dose-dependent effect
- inhibition (Mus musculus): Dose-dependent effect
- Activity (LS180): Dose-dependent effect
- pIC50 (LS180): 5.12

Second part, the compound before the results:

Compound: Cc1c(C)c2c(c(C)c1O)CCC(C)(COc1ccc(CC3SC(=O)NC3=O)cc1)O2 (stereo not given) [TROGLITAZONE]
- inhibition at 0.5 h, 10 µM (CYP2C19 [4]): 84%

Compound: CCOc1ccc2ccc(=O)oc2c1 [ETHOXYCOUMARIN]
- CLH [5]: 477 µL/min
- CLint scaled at 1 µM [6]: 1260 mL/min/kg
- half-life at 1 µM [7]: 4.84 min

Compound: COc1ccc(CCN(C)CCCC(C#N)(c2ccc(OC)c(OC)c2)C(C)C)cc1OC (stereo not given)
- fold change (FC) (Homo sapiens): 8.5

Compound: CC(C)NCC(O)COc1ccc(CC(N)=O)cc1 (stereo not given) [ATENOLOL]
- recovery at 2 h (in vitro [10]): 94.7%
- recovery at 2 h (in vitro [21]): 102%

Compound: CC(C)NCC(O)COc1cccc2ccccc12 (stereo not given) [PROPRANOLOL]
- recovery at 2 h (in vitro [10]): 70%
- Papp A→B at 2 h (in vitro [26]): 30.9 ×10⁻⁶ cm/s

From ChEMBL document CHEMBL4270604, “Hedgehog pathway inhibitors of the acylthiourea and acylguanidine class show antitumor activity on colon cancer in vitro and in vivo” (Eur J Med Chem, 2018)
